{
  "source": "patent US9193717B2",
  "about": "“Mineralocorticoid receptor antagonists” (Merck Sharp & Dohme Corp., priority 2011, dated 2015)",
  "data": [
    {"molecular_target": "T1, full-length human Mineralocorticoid Receptor (MR) (Homo sapiens, UniProt P08235)", "T1 construct": "full-length human Mineralocorticoid Receptor (MR); host or cells: PathHunter CHO-K1 cells", "T1 sequence (P08235 1-984)": "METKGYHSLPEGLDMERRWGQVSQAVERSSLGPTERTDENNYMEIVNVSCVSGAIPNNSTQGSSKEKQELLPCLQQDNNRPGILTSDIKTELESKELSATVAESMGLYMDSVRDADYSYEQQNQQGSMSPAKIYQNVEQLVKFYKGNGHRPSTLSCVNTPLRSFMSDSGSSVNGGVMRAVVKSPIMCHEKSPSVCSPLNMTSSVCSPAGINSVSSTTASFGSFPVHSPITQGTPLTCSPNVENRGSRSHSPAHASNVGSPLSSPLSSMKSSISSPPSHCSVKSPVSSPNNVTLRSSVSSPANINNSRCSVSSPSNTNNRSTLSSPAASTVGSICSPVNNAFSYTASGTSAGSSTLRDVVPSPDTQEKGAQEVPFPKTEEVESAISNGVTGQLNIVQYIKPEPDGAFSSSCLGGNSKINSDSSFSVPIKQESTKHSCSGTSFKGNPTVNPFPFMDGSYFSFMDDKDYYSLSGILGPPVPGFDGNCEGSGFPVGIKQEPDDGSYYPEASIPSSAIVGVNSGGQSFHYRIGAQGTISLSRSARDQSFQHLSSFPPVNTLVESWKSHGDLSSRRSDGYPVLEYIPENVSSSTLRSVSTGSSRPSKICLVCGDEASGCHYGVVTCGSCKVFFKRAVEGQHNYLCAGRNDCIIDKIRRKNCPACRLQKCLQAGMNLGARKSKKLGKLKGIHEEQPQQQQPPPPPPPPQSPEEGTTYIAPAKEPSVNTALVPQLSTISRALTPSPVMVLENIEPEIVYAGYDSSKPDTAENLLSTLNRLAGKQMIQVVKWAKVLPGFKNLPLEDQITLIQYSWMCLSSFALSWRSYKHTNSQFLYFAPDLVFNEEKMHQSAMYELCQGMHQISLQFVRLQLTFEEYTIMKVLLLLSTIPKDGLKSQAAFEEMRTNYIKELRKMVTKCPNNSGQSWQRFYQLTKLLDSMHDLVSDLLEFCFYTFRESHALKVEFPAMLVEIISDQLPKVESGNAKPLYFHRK", "assay": "human MR NH Pro assay (PathHunter Protein:Protein interaction assay, MR antagonism)", "format": "cell-based", "conditions": "PathHunter CHO-K1 cells that overexpress human MR; aldosterone (0.3 nM), 6 hours at 37° C.; antagonist mode; read-out: IC50 rating", "procedure": "The activity of the compounds of the present invention regarding mineralocorticoid receptor antagonism was evaluated using the following assay.\nAssessment of Mr Potency in HMR NH Pro Assay\nThe human MR NH Pro assay is a commercially available PathHunter™ Protein:Protein interaction assay (DiscoveRx; http://www.discoverx.com/nhrs/prod-nhrs.php) that measures the ability of compounds to antagonize full-length human Mineralocorticoid Receptor (MR) binding to a coactivator peptide. PathHunter™ CHO—K1 cells that overexpress human MR (Cat #93-0456C2, Lot No: 09B0913) were cultured in growth media (F12K w/Glutamine and phenol red (Gibco 11765-047) supplemented with 10% HI FBS (Gibco 16000); 0.25 mg/ml Hygromycin in PBS (Invitrogen 10687-010, 50 mg/ml); 100 I.U./mL and 100 μg/mL Pen/Strep (Gibco 15140-122); 0.6 mg/mL Geneticin).\nCompounds were assessed for MR antagonist activity by incubating the cells with a titrating dose of compound in F12K w/Glutamine and phenol red culture media (Invitrogen 11765-047) supplemented with 1% Charcoal/Dextran Treated FBS (Hyclone #SH30068.01) and aldosterone (0.3 nM) for 6 hours at 37° C. […] Growth Media: • F12K w/Glutamine and phenol red (Gibco 11765-047) • 10% HI FBS (Gibco 16000) • 0.25 mg/ml Hygromycin in PBS (Invitrogen 10687-010, 50 mg/ml) • 100 I.U./mL and 100 μg/mL Pen/Strep (Gibco 15140-122) • 0.6 mg/mL Geneticin (Gibco 10131, 50 mg/ml) • 2. Assay Media: • F12K w/Glutamine and phenol red (Invitrogen 11765-047) • 1% Charcoal/Dextran Treated FBS (Hyclone #SH30068.01) • 3. 3× PathHunter Detection Reagents (Cat#93-0001) (need ˜6 ml/plate). […] Control Agonist:Aldosterone:Sigma cat# A9477 • Prepare stock solution-10 μM in DMSO kept at −20° C. • for assay, dilute in assay media to 1.8 or 6 nM (6× of final concentration=about 0.3 nM to about 1.0 nM) • 5. Cell line: PathHunter CHO—K1 MR cells Cat #93-0456C2, Lot No: 09B0913, from operation liquid nitrogen stock. • 6. Control Antagonist:Spironolactone:Sigma #S-3378 and Eplerenone Sigma #107724-20-9 (10 mM stock concentration also prepared in DMSO and stored at −20° C.). • Methods: • Assay Set up and Calculations: • 1. Cells were grown in F12+FBS+Hygromycin+pen/strep+Genetin • 2. Cells were collected with 0.05% trypsin and the cell suspension was spun and resuspended in a volume of F12+1.5% CD-FBS and counted. • 3. The cells were resuspended to 4×10^5 cells/mL. • 4. Cells were (25 μL/well) added to the wells of a 384 well plate. • 5. The plate was then incubated at 37° C. over night in a humidified incubator with 5% CO2. • 6. Test compounds were titrated starting at 4.4 mM, 10-point titration in 1:3 dilution. • 7. Aldosterone was diluted in assay media to 1.8 nM or 6 nM from 10 μM stock (final concentration to be about 0.3 nM to about 1.0 nM). • Protocol for 384 Well Plate Format: 6 Hr Treatment: • 1. Plated 10K exponentially growing cells/well (25 μL) resuspended in assay media to each well using the Multidrop (Thermo Electron) (use white wall, clear bottom assay plates (Costar #3570) and incubate overnight at 37° C., 5% CO2. • 2. 0.25 μL 120× test compound (final DMSO concentration should be <1%) was added to each well n=2, 10 point titrations starting at 36.7 μM final concentration. • 3. 5 μL 6× agonist (final aldosterone concentration should be about 0.3 nM to about 1.0 nM) was added to all wells using the PlateMate Plus.\n(ThermoFisher) (except those wells in columns 23 and 24) • 4. 5 μL of assay media was added to all wells in column 23 and 24. • 5. Plates were incubated 6 hrs at 37° C., 5% CO2. • 6. 15 μL 3× DiscoveRx detection reagent was added to each well. • 7. Plates were incubated for 1 hour at room temperature (plates stored in the dark). • 8. Plates were read on Envision (PerkinElmer) luminesence plate reader and analyzed using ADA.", "units": {"IC50": "nM"}, "values": [
      {"smiles": "C[C@H](c1ccccc1)N1C(=O)N[C@](Cc2ccccc2)(c2nc3ccc(Cl)cc3[nH]2)C1=O", "note": "(single isomer, unassigned) [Compound 38]", "IC50": "500 to 2000"},
      {"smiles": "C[C@H](c1ccc(F)cc1)N1C(=O)O[C@](Cc2ccccc2)(c2nc3c(Cl)cc(Cl)cc3[nH]2)C1=O", "note": "[Compound 19, (5R)-5-Benzyl-5-(4,6-dichloro-1H-benzimidazol-2-yl)-3-[(1R)-1-(4-fluorophenyl)ethyl]-1,3-oxazolidine-2,4-dione]", "IC50": "< 100"},
      {"smiles": "C[C@H](c1ccc(F)cc1)N1C(=O)O[C@](Cc2ccccc2)(c2nc3c(-c4cncnc4)cccc3[nH]2)C1=O", "note": "[Compound 35, (5R)-5-Benzyl-3-[(1R)-1-(4-fluorophenyl)ethyl]-5-(4-pyrimidin-5-yl-1H-benzimidazol-2-yl)-1,3-oxazolidine-2,4-dione]", "IC50": "100 to 500"},
      {"smiles": "C[C@H](c1ccc(F)cc1)N1C(=O)O[C@](Cc2ccccc2)(c2nc3cc(N4CCOCC4)ccc3[nH]2)C1=O", "note": "[Compound 9, (5R)-5-Benzyl-3-[(1R)-1-(4-fluorophenyl)ethyl]-5-(5-morpholin-4-yl-1H-benzimidazol-2-yl)-1,3-oxazolidine-2,4-dione]", "IC50": "< 100"},
      {"smiles": "CCS(=O)(=O)Nc1ccc2nc([C@@]3(Cc4ccccc4)OC(=O)N([C@H](C)c4ccc(F)cc4)C3=O)[nH]c2c1", "note": "[Compound 16, N-(2-{(5R)-5-Benzyl-3-[(1R)-1-(4-fluorophenyl)ethyl]-2,4-dioxo-1,3-oxazolidin-5-yl}-1H-benzimidazol-6-yl)ethanesulfonamide]", "IC50": "100 to 500"}
    ]}
  ]
}
